From patent US12540128B2, “Substituted pyridazinones as herbicides” (SYNGENTA CROP PROTECTION AG, priority 2019, dated 2026)

Key:
Assay type in all cases: in vivo
Conditions in all cases: 250 g/ha, after 13 days
[1] = system: Solanum nigrum (SOLNI); assay: B3 Pre-Emergence Efficacy Test 1
Procedure: (§1) Seeds of a variety of test species were sown in standard soil in pots: Solanum nigrum (SOLNI), Amaranthus retoflexus (AMARE), Setaria faberi (SETFA), Echinochloa crus-galli (ECHCG), Ipomoea hederacea (IPOHE), Lolium perenne (LOLPE). After cultivation for one day (pre-emergence) under controlled conditions in a glasshouse (at 24/16° C., day/night; 14 hours light; 65% humidity), the plants were sprayed with an aqueous spray solution derived from the formulation of the technical active ingredient in acetone/water (50:50) solution containing 0.5% Tween 20 (polyoxyethelyene sorbitan monolaurate, CAS RN 9005-64-5). Compounds are applied at 250 g/ha. The test plants were then grown in a glasshouse under controlled conditions (at 24/16° C., day/night; 14 hours light; 65% humidity) and watered twice daily. After 13 days, the test is evaluated for the percentage damage caused to the plant. The biological activities are assessed on a five point scale (5=80-100%; 4=60-79%; 3=40-59%; 2=20-39%; 1=0-19%). A blank value in the table is indicative that the compound was not tested on that species.

[2] = system: Amaranthus retoflexus (AMARE); assay: B3 Pre-Emergence Efficacy Test 1
Procedure: as §1

[3] = system: Ipomoea hederacea (IPOHE); assay: B3 Pre-Emergence Efficacy Test 1
Procedure: as §1

[4] = system: Echinochloa crus-galli (ECHCG); assay: B3 Pre-Emergence Efficacy Test 1
Procedure: as §1

[5] = system: Lolium perenne (LOLPE); assay: B3 Pre-Emergence Efficacy Test 1
Procedure: as §1

[6] = system: Setaria faberi (SETFA); assay: B3 Pre-Emergence Efficacy Test 1
Procedure: as §1

[7] = system: Solanum nigrum (SOLNI); assay: B1 Post-Emergence Efficacy Test 1
Procedure: (§2) Seeds of a variety of test species are sown in standard soil in pots:— Solanum nigrum (SOLNI), Amaranthus retoflexus (AMARE), Setaria faberi (SETFA), Echinochloa crus-galli (ECHCG), Ipomoea hederacea (IPOHE), Lolium perenne (LOLPE). After 8 days cultivation (post-emergence) under controlled conditions in a glasshouse (at 24/16° C., day/night; 14 hours light; 65% humidity), the plants are sprayed with an aqueous spray solution derived from the formulation of the technical active ingredient in acetone/water (50:50) solution containing 0.5% Tween 20 (polyoxyethylene sorbitan monolaurate, CAS RN 9005-64-5). Compounds are applied at 250 g/ha. The test plants are then grown in a glasshouse under controlled conditions in a glasshouse (at 24/16° C., day/night; 14 hours light; 65% humidity) and watered twice daily. After 13 days, the test is evaluated for the percentage damage caused to the plant. The biological activities are assessed on a five point scale (5=80-100%; 4=60-79%; 3=40-59%; 2=20-39%; 1=0-19%). A blank value in the table is indicative that the compound was not tested on that species.

[8] = system: Amaranthus retoflexus (AMARE); assay: B1 Post-Emergence Efficacy Test 1
Procedure: as §2

[9] = system: Ipomoea hederacea (IPOHE); assay: B1 Post-Emergence Efficacy Test 1
Procedure: as §2

[10] = system: Echinochloa crus-galli (ECHCG); assay: B1 Post-Emergence Efficacy Test 1
Procedure: as §2

[11] = system: Lolium perenne (LOLPE); assay: B1 Post-Emergence Efficacy Test 1
Procedure: as §2

[12] = system: Setaria faberi (SETFA); assay: B1 Post-Emergence Efficacy Test 1
Procedure: as §2

## Cc1ccc2cc(CCc3c(Cl)ccc(F)c3-c3c(OC(=O)C(C)C)c(C)nn(C)c3=O)ccc2n1 [Compound 3.034, [5-[3-chloro-6-fluoro-2-[2-(2-methyl-6-quinolyl)ethyl]phenyl]-1,3-dimethyl-6-oxo-pyridazin-4-yl] 2-methylpropanoate]
[1]
  percentage damage caused to the plant, five point scale, SOLNI: 5 (5=80-100%)
[2]
  percentage damage caused to the plant, five point scale, AMARE: 5 (5=80-100%)
[3]
  percentage damage caused to the plant, five point scale, IPOHE: 2 (2=20-39%)
[4]
  percentage damage caused to the plant, five point scale, ECHCG: 5 (5=80-100%)
[5]
  percentage damage caused to the plant, five point scale, LOLPE: 5 (5=80-100%)
[6]
  percentage damage caused to the plant, five point scale, SETFA: 5 (5=80-100%)
[7]
  percentage damage caused to the plant, five point scale, SOLNI: 5 (5=80-100%)
[8]
  percentage damage caused to the plant, five point scale, AMARE: 4 (4=60-79%)
[9]
  percentage damage caused to the plant, five point scale, IPOHE: 4 (4=60-79%)
[10]
  percentage damage caused to the plant, five point scale, ECHCG: 4 (4=60-79%)
[11]
  percentage damage caused to the plant, five point scale, LOLPE: 5 (5=80-100%)
[12]
  percentage damage caused to the plant, five point scale, SETFA: 5 (5=80-100%)

## Cc1nn(C)c(=O)c(-c2c(F)ccc(Cl)c2CCc2ccnc3ccccc23)c1O [Compound 1.036]
[1]
  percentage damage caused to the plant, five point scale, SOLNI: 5 (5=80-100%)
[2]
  percentage damage caused to the plant, five point scale, AMARE: 5 (5=80-100%)
[3]
  percentage damage caused to the plant, five point scale, IPOHE: 5 (5=80-100%)
[4]
  percentage damage caused to the plant, five point scale, ECHCG: 5 (5=80-100%)
[5]
  percentage damage caused to the plant, five point scale, LOLPE: 5 (5=80-100%)
[6]
  percentage damage caused to the plant, five point scale, SETFA: 5 (5=80-100%)
[7]
  percentage damage caused to the plant, five point scale, SOLNI: 5 (5=80-100%)
[8]
  percentage damage caused to the plant, five point scale, AMARE: 5 (5=80-100%)
[9]
  percentage damage caused to the plant, five point scale, IPOHE: 5 (5=80-100%)
[10]
  percentage damage caused to the plant, five point scale, ECHCG: 5 (5=80-100%)
[11]
  percentage damage caused to the plant, five point scale, LOLPE: 5 (5=80-100%)
[12]
  percentage damage caused to the plant, five point scale, SETFA: 5 (5=80-100%)

## Cc1nn(C)c(=O)c(-c2c(F)ccc(Cl)c2/C=C/c2ccc3c(c2)OC(F)(F)O3)c1OC(=O)C(C)C [Compound 4.342]
[1]
  percentage damage caused to the plant, five point scale, SOLNI: 3 (3=40-59%)
[2]
  percentage damage caused to the plant, five point scale, AMARE: 1 (1=0-19%)
[3]
  percentage damage caused to the plant, five point scale, IPOHE: 1 (1=0-19%)
[4]
  percentage damage caused to the plant, five point scale, ECHCG: 0
[5]
  percentage damage caused to the plant, five point scale, LOLPE: 0
[6]
  percentage damage caused to the plant, five point scale, SETFA: 0
[7]
  percentage damage caused to the plant, five point scale, SOLNI: 4 (4=60-79%)
[8]
  percentage damage caused to the plant, five point scale, AMARE: 0
[9]
  percentage damage caused to the plant, five point scale, IPOHE: 3 (3=40-59%)
[10]
  percentage damage caused to the plant, five point scale, ECHCG: 1 (1=0-19%)
[11]
  percentage damage caused to the plant, five point scale, LOLPE: 2 (2=20-39%)
[12]
  percentage damage caused to the plant, five point scale, SETFA: 1 (1=0-19%)
